Source: PubChem BioAssay (NCI)
Where “and” joins values, the source holds several entries; their conditions need not be identical. Identical values can stand only once.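 Results reflect a 48-hour exposure of cells in 96-well plates to compound at five concentrations. GI50 marks 50% less growth. TGI denotes the concentration required for complete inhibition of growth.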

Assays:
Test in all cases: NCI tumour cell line growth inhibition, 48 h
DLD-1 colon = tested on: DLD-1 colon
LXFL 529 NSCLC = tested on: LXFL 529 NSCLC
M19-MEL melanoma = tested on: M19-MEL melanoma
SNB-78 CNS = tested on: SNB-78 CNS
DU-145 prostate = tested on: DU-145 prostate
NCI/ADR-RES ovarian = tested on: NCI/ADR-RES ovarian
BT-549 breast = tested on: BT-549 breast
T-47D breast = tested on: T-47D breast
PC-3 prostate = tested on: PC-3 prostate
MCF7 breast = tested on: MCF7 breast

Compound | TGI (DLD-1 colon) [µM] | TGI (LXFL 529 NSCLC) | TGI (M19-MEL melanoma) | TGI (SNB-78 CNS) | other results
CC1=CC(=O)c2[nH]c3ccccc3c2C1=O | 8.82 | 7.63 µM | – | – | GI50 (DLD-1 colon): 5.06 µM; GI50 (LXFL 529 NSCLC): 4.22 µM
C(=C1/CCCCC([n+]2ccccc2)=N1)/c1ccccc1 | > 100 | > 100 µM | > 100 µM | > 100 µM | –
C[P+](C)(CC(F)(F)F)c1ccccc1 | > 100 | > 100 µM | > 100 µM | > 100 µM | –
C[Si](C)(C)[C@@]1([Se]c2ccccc2)CC[C@@H]1C(=O)c1ccccc1 | > 100 | > 100 µM | > 100 µM | > 100 µM | –
O=C(O)c1oc2ccc([N+](=O)[O-])c3c2c1CCC3 | > 100 | > 100 µM | > 100 µM | > 100 µM | –
O=C1CCCC2COc3ccc(O)c1c32 (stereo not given) | > 100 | – | > 100 µM | > 100 µM | –
Cc1cc(Br)cc(C)c1NC(=O)C(=O)C(C(=O)c1ccc(Cl)c(Cl)c1)C1OC(=O)c2ccccc21 (stereo not given) | 51.2 | > 100 µM | > 100 µM | > 100 µM | –
O=C1CCCc2c(O)ccc(O)c21 | > 100 | > 100 µM | > 100 µM | > 100 µM | –
N#CCc1nc2c(s1)C(=O)c1ccccc1C2=O | – | 28.2 µM | 11.4 µM | 47.7 µM | –
COc1ccc(C2CC(C)=Nc3c([nH]c(=S)[nH]c3=O)N2)cc1 (stereo not given) | – | 30.5 µM | 31 µM | > 100 µM | –
CC(C)S(=O)(=O)n1c(N)nc2ccc(/C(=N/O)c3ccccc3)cc21 | > 100 | > 100 µM | > 100 µM | > 100 µM | –
Cc1cc(C(=O)NCCN(C)C)c2nc3ccccc3nc2c1 | 48.9 | > 46.3 µM | 13.6 µM | 47.2 µM | –
Cc1ccc(C)c2sc3cc(=O)ccc-3nc12 | > 100 | > 100 µM | 31.1 µM | > 100 µM | –
CCCCCCCCSC(SCCCCCCCC)=C1C(=O)N(c2ccccc2)N=C1C | 50 | > 100 µM | > 100 µM | > 100 µM | –
CCCC/C(C)=N/NC(N)=S | > 100 | > 100 µM | > 100 µM | > 100 µM | –
COS(=O)CCOC(=O)c1ccccc1SSc1ccccc1C(=O)OCCS(=O)OC (stereo not given) | > 100 | 47.2 µM | > 100 µM | > 100 µM | –
COc1ccc2c(c1)[n+]([O-])c(-c1ccc(Cl)c(Cl)c1)c(N)[n+]2[O-] | > 100 | > 100 µM | > 100 µM | > 100 µM | –
O=C(O)C(O)C(O)C1[O][Sb][O]C1CO (stereo not given) | > 100 | > 100 µM | 31 µM | > 100 µM | GI50 (DU-145 prostate): > 100 µM; TGI (DU-145 prostate): > 100 µM; GI50 (DLD-1 colon): > 100 µM; GI50 (NCI/ADR-RES ovarian): > 100 µM; TGI (NCI/ADR-RES ovarian): > 100 µM; GI50 (BT-549 breast): > 100 µM; TGI (BT-549 breast): > 100 µM; GI50 (LXFL 529 NSCLC): > 89.2 µM; GI50 (M19-MEL melanoma): 9.07 µM; GI50 (T-47D breast): > 100 µM; TGI (T-47D breast): > 100 µM; GI50 (PC-3 prostate): > 100 µM; TGI (PC-3 prostate): > 100 µM; GI50 (SNB-78 CNS): > 81.3 µM
Cc1ccc(S(=O)(=O)ON=C2CC(c3ccccc3)N(C)C(c3ccccc3)C2)cc1 (stereo not given) | – | 33.3 µM and 40.3 µM | 53.5 µM and 56.2 µM | 64.7 µM and 52.8 µM | –
COc1cc(C(N)=O)c(OC)c(OC)c1OC | > 100 | > 100 µM | > 100 µM | > 100 µM | –
Clc1ccc(CCN2CCOCC2)c(Cl)c1 | > 100 | – | > 100 µM | > 100 µM | –

Compound | TGI (DLD-1 colon) [µM] | TGI (LXFL 529 NSCLC) | TGI (M19-MEL melanoma) | TGI (SNB-78 CNS) | other results
OCC1CC2CC1C1(C2)OCCO1 (stereo not given) | > 100 | > 100 µM | > 100 µM | > 100 µM | –
CC(C)c1cc2c(O)c(c1)Cc1cc(C(C)C)cc(c1O)Cc1cc(C(C)C)cc(c1O)Cc1cc(C(C)C)cc(c1O)Cc1cc(C(C)C)cc(c1O)Cc1cc(C(C)C)cc(c1O)C2 | > 100 | > 100 µM | > 100 µM | > 100 µM | –
O=[N+]([O-])C(=C(c1ccccc1)c1ccccc1)[N+](=O)[O-] | 19.8 | 29.2 µM | – | – | –
N#CC(/C(=N\NC(N)=S)C(=O)NC1C2CC3CC(C2)CC1C3)c1ccc(Cl)cc1 (stereo not given) | > 100 | > 100 µM | > 100 µM | > 100 µM | –
CC(=O)Nc1[nH]c(=O)[nH]c(=O)c1N(C(C)=O)C(C)=O | > 100 | > 100 µM | > 100 µM | > 100 µM | –
c1ccc(CN(Cc2ccccn2)Cn2cccn2)nc1 | > 100 | – | > 100 µM | > 100 µM | –
CC1=C[C@H]2C[C@@]3(C)O[C@@H]([C@]4(C)CC[C@H]([C@@H](C)C(=O)O)OO4)CC3C(C)(C)[C@H]2CC1 (stereo not given in full) | 2.47 | 1.9 µM | 3.3 µM | 2.78 µM | –
Cc1nc(Nc2ccc([N+](=O)[O-])cc2)sc1C(=O)/C=C/c1ccc(N(C)C)cc1 | > 100 | – | > 100 µM | – | –
O=C(O)CNS(=O)(=O)c1ccc(NC(=O)c2cccc([N+](=O)[O-])c2)cc1 | > 100 | > 100 µM | > 100 µM | – | –
OCC(O)C(OC1OC(CO)C(O)C(O)C1O)c1nn(-c2ccc(F)cc2)c2nc3cc(Cl)c(Cl)cc3cc12 (stereo not given) | > 100 | > 100 µM | > 100 µM | > 100 µM | –
O=C1C=Cc2noc3cccc1c23 | 3.13 | 4.9 µM | 11.2 µM | 12 µM | –
COc1ccc(-c2nc(N)nc(-c3cc(C)ccc3O)c2Cl)cc1 | > 100 | > 100 µM | > 100 µM | 81.9 µM | –
O=C(O)C1C2CC3CC2CC31 (stereo not given) | – | > 100 µM | – | > 100 µM | –
Cc1ccc(C)c(NC(=O)CCc2n[nH]c(=S)o2)c1 | > 100 | > 100 µM | > 100 µM | > 100 µM | –
O=C(Nc1ccc(-c2nc3ccc(NC(=O)c4ccc(Cl)cc4)cc3[nH]2)cc1)c1ccc(Cl)cc1 | – | – | – | – | GI50 (DU-145 prostate): 2.43 µM; TGI (DU-145 prostate): 7.16 µM; GI50 (MCF7 breast): 1.23 µM; TGI (MCF7 breast): 4.91 µM; GI50 (NCI/ADR-RES ovarian): 17 µM; TGI (NCI/ADR-RES ovarian): 64.4 µM; GI50 (BT-549 breast): 6.56 µM; TGI (BT-549 breast): 20.7 µM; GI50 (T-47D breast): 2.13 µM; TGI (T-47D breast): 5.01 µM; GI50 (PC-3 prostate): 2.11 µM; TGI (PC-3 prostate): 5.93 µM
COc1ccc(/C=C/CO)cc1OC | – | > 100 µM | > 100 µM | > 100 µM | –
CN(C)/C(=N/C(=O)Nc1ccccc1)SCc1ccccc1 | > 100 | > 100 µM | > 100 µM | > 100 µM | –
Cc1ccc(NC(=O)CCC(=O)C(C#N)c2ccc(Cl)cc2)cc1C (stereo not given) | > 100 | > 100 µM | > 100 µM | > 100 µM | –
S=C1OC2C3C4CC5C3C(O1)C1C5C4C21 (stereo not given) | > 100 | > 100 µM | > 100 µM | > 100 µM | –
O=C(O)CCN1C(=O)/C(=C/C(Cl)=C/c2ccccc2)SC1=S | – | – | – | – | GI50 (DU-145 prostate): 3.14 µM; TGI (DU-145 prostate): 12.4 µM; GI50 (MCF7 breast): 1.98 µM; TGI (MCF7 breast): 13.1 µM; GI50 (NCI/ADR-RES ovarian): 2.6 µM; TGI (NCI/ADR-RES ovarian): 9.59 µM; GI50 (BT-549 breast): 2.14 µM; TGI (BT-549 breast): 6.27 µM; GI50 (T-47D breast): 1.71 µM; TGI (T-47D breast): 6.52 µM; GI50 (PC-3 prostate): 2.87 µM; TGI (PC-3 prostate): 11.4 µM
